Measured values taken from US8952024B2, “Herbicidal pyrimidone derivatives” (E I du Pont de Nemours and Company, priority 2009, dated 2015).

Key:
Test in all cases: Test C plant response
Format in all cases: in vivo
[1] = tested on: blackgrass (Alopecurus myosuroides); settings: Preemergence, scale 0 to 100
[2] = tested on: canarygrass (Phalaris minor); settings: Preemergence, 125 g ai/ha; scale 0 to 100
[3] = tested on: chickweed (common chickweed, Stellaria media); settings: Preemergence, 125 g ai/ha; scale 0 to 100
[4] = tested on: field poppy (Papaver rhoeas); settings: Preemergence, scale 0 to 100
[5] = tested on: field violet (Viola arvensis); settings: Preemergence, scale 0 to 100
[6] = tested on: pigweed (Amaranthus retroflexus); settings: Preemergence, scale 0 to 100
[7] = tested on: Russian thistle (Salsola iberica); settings: Preemergence, scale 0 to 100
[8] = tested on: spring wheat (Triticum aestivum); settings: Preemergence, scale 0 to 100
[9] = tested on: wild mustard (Sinapis arvensis); settings: Preemergence, scale 0 to 100
[10] = tested on: wild radish (Raphanus raphanistrum); settings: Preemergence, scale 0 to 100
[11] = tested on: winter barley (Hordeum vulgare); settings: Preemergence, scale 0 to 100

Cc1ccccc1-n1c(-c2ccccc2)ncc(C(=O)C2=C(O)CCCC2=O)c1=O [Compound 12]
98: Plant response rating: Field Poppy ([4]; 62 g ai/ha) | Plant response rating: Field Poppy ([4]; 125 g ai/ha)
20: Plant response rating: Canarygrass [2]
65: Plant response rating: Pigweed ([6]; 125 g ai/ha)
50: Plant response rating: Chickweed [3] | Plant response rating: Field Poppy ([4]; 16 g ai/ha) | Plant response rating: Pigweed ([6]; 62 g ai/ha)
80: Plant response rating: Field Poppy ([4]; 31 g ai/ha)
0: Plant response rating: Blackgrass ([1]; 62 g ai/ha) | Plant response rating: Blackgrass ([1]; 125 g ai/ha) | Plant response rating: Blackgrass ([1]; 16 g ai/ha) | Plant response rating: Blackgrass ([1]; 31 g ai/ha) | Plant response rating: Field Violet ([5]; 62 g ai/ha) | Plant response rating: Field Violet ([5]; 125 g ai/ha) | Plant response rating: Field Violet ([5]; 16 g ai/ha) | Plant response rating: Field Violet ([5]; 31 g ai/ha) | Plant response rating: Pigweed ([6]; 16 g ai/ha) | Plant response rating: Pigweed ([6]; 31 g ai/ha) | Plant response rating: Russian Thistle ([7]; 62 g ai/ha) | Plant response rating: Russian Thistle ([7]; 16 g ai/ha) | Plant response rating: Russian Thistle ([7]; 31 g ai/ha) | Plant response rating: Wheat, Spring ([8]; 62 g ai/ha) | Plant response rating: Wheat, Spring ([8]; 125 g ai/ha) | Plant response rating: Wheat, Spring ([8]; 16 g ai/ha) | Plant response rating: Wheat, Spring ([8]; 31 g ai/ha) | Plant response rating: Mustard, Wild ([9]; 16 g ai/ha) | Plant response rating: Radish, Wild ([10]; 62 g ai/ha) | Plant response rating: Radish, Wild ([10]; 125 g ai/ha) | Plant response rating: Radish, Wild ([10]; 16 g ai/ha) | Plant response rating: Radish, Wild ([10]; 31 g ai/ha) | Plant response rating: Barley, Winter ([11]; 62 g ai/ha) | Plant response rating: Barley, Winter ([11]; 125 g ai/ha) | Plant response rating: Barley, Winter ([11]; 16 g ai/ha) | Plant response rating: Barley, Winter ([11]; 31 g ai/ha)
5: Plant response rating: Mustard, Wild ([9]; 62 g ai/ha)
